Test results published in US4698352A, “4-oxo-1,4-dihydronicotinic acid derivatives, salts thereof, and antibacterial agents containing the same” (Toyama Chemical Co., Ltd., priority 1982, dated 1987).
Converted amounts (≈) assume the structure as drawn. Like-named read-outs stand apart in the source and are kept apart here.

Experiments:
Test in all cases: Antibacterial activity (MIC), agar dilution
Assay type in all cases: cell-based
E. coli NIHJ JC-2 = conditions: Escherichia coli, NIHJJC2, 20 h
Text: (§1) The amount of bacteria inoculated was 10^4 cells per plate (10^6 cells per ml).

Kl. pneumoniae Y-41 = conditions: Klebsiella pneumoniae, Y41, 10^6 cells per ml, 37° C., 20 hours, read-out: MIC
Text: as §1

St. aureus FDA209P = conditions: Staphylococcus aureus, FDA209P, 20 h
Text: as §1

Pro. vulgaris GN3027 = conditions: Proteus vulgaris, GN3027, 20 h
Text: as §1

Aci. antitratus A-6 = conditions: 20 h
Text: as §1

Pro. mirabilis T-111 = conditions: Proteus mirabilis, 37° C.
Text: as §1

Ent. cloacae IID977 = conditions: Enterobacter cloacae, IID977, 20 h
Text: as §1

Ps. aeruginosa S-68 = conditions: Pseudomonas aeruginosa
Text: as §1

Kl. pneumoniae Y-50 = conditions: Klebsiella pneumoniae, Y50, 20 h, 10^6 cells per ml, 37° C., read-out: MIC
Text: as §1

Pro. morganii T-216 = conditions: Morganella morganii, 37° C.
Text: as §1

Ps. aeruginosa IFO3445 = conditions: Pseudomonas aeruginosa; Ps. aeruginosa IFO3445; 10^6 cells per ml; 37° C., 20 hours; read-out: MIC
Text: as §1

E. coli TK-111 = conditions: Escherichia coli, TK111, 20 h, E. coli TK-111; 10^6 cells per ml; 37° C., 20 hours; read-out: MIC
Text: as §1

Pro. vulgaris GN76** = conditions: Proteus vulgaris
Text: as §1
(§2) ** Cephalospolinase-producing bacteria

E. coli GN5482** = conditions: Escherichia coli, 20 h; E. coli GN5482, cephalospolinase-producing; 10^6 cells per ml; read-out: MIC
Text: as §1, §2

Ps. aeruginosa GN918** = conditions: Pseudomonas aeruginosa, Ps. aeruginosa GN918, cephalospolinase-producing, 10^6 cells per ml
Text: as §1, §2

E. coli TK-3* = conditions: Escherichia coli, 20 h
Text: as §1
(§3) * Penicillinase-producing bacteria

Ps. aeruginosa GN3379* = conditions: Pseudomonas aeruginosa, Ps. aeruginosa GN3379, penicillinase-producing, 10^6 cells per ml
Text: as §1, §3

St. aureus F-137* = conditions: Staphylococcus aureus, 20 h
Text: as §1, §3

Kl. pneumoniae Y-4* = conditions: Klebsiella pneumoniae, 20 h, Kl. pneumoniae Y-4, penicillinase-producing; 10^6 cells per ml; read-out: MIC
Text: as §1, §3

[1] = E. coli NIHJ JC-2, 10^6 cells per ml, 37° C., 20 hours, read-out: MIC
[2] = St. aureus FDA209P, 10^6 cells per ml, 37° C., 20 hours, read-out: MIC
[3] = Pro. vulgaris GN3027, 10^6 cells per ml, 37° C., 20 hours, read-out: MIC
[4] = Aci. antitratus A-6, 10^6 cells per ml, 37° C., 20 hours, read-out: MIC
[5] = T111, 10^6 cells per ml, 20 hours, read-out: MIC
[6] = Ent. cloacae IID977, 10^6 cells per ml, 37° C., 20 hours, read-out: MIC
[7] = S68, Ps. aeruginosa S-68, 10^6 cells per ml, 37° C., 20 hours, read-out: MIC
[8] = T216, 10^6 cells per ml, 20 hours, read-out: MIC
[9] = 20 h, Pro. vulgaris GN76, cephalospolinase-producing, 10^6 cells per ml, read-out: MIC
[10] = E. coli TK-3, penicillinase-producing, 10^6 cells per ml, read-out: MIC
[11] = St. aureus F-137, penicillinase-producing, 10^6 cells per ml, read-out: MIC

| Compound | MIC (E. coli NIHJ JC-2; [1]) | MIC (Kl. pneumoniae Y-41) | MIC (St. aureus FDA209P; [2]) | MIC (Pro. vulgaris GN3027; [3]) | MIC (Aci. antitratus A-6; [4]) | MIC (Pro. mirabilis T-111; [5]) | MIC (Ent. cloacae IID977; [6]) | MIC (Ps. aeruginosa S-68; [7]) | MIC (Kl. pneumoniae Y-50) | MIC (Pro. morganii T-216; [8]) | MIC (Ps. aeruginosa IFO3445) | MIC (E. coli TK-111) | MIC (Pro. vulgaris GN76**; [9]) | MIC (E. coli GN5482**) | MIC (Ps. aeruginosa GN918**; 20 h, read-out: MIC) | MIC (E. coli TK-3*; [10]) | MIC (Ps. aeruginosa GN3379*; 20 h, read-out: MIC) | MIC (St. aureus F-137*; [11]) | MIC (Kl. pneumoniae Y-4*) | MIC (Pro. mirabilis T-111; T111, 20 h, 10^6 cells per ml) | other results |
| --- | --- | --- | --- | --- | --- | --- | --- | --- | --- | --- | --- | --- | --- | --- | --- | --- | --- | --- | --- | --- | --- |
| Cc1cc(O)ccc1-n1cc(C(=O)O)c(=O)cc1-c1ccc2c(ccn2C)c1 | ≤ 0.05 mg/L | 0.78 mg/L (≈ 2.08 µM) | ≤ 0.05 mg/L | 0.1 mg/L (≈ 0.267 µM) | ≤ 0.05 mg/L | 0.78 mg/L (≈ 2.08 µM) | 0.39 mg/L (≈ 1.04 µM) | 3.13 mg/L (≈ 8.36 µM) | 0.2 mg/L (≈ 0.534 µM) | 0.78 mg/L (≈ 2.08 µM) | 3.13 mg/L (≈ 8.36 µM) | 0.05 mg/L (≈ 0.134 µM) | 0.39 mg/L (≈ 1.04 µM) | ≤ 0.05 mg/L | 0.39 mg/L (≈ 1.04 µM) | 0.2 mg/L (≈ 0.534 µM) | 6.25 mg/L (≈ 16.7 µM) | ≤ 0.05 mg/L | 0.78 mg/L (≈ 2.08 µM) | – | – |
| CN(C)c1ccc(-c2cc(=O)c(C(=O)O)cn2-c2ccccc2F)cc1 | 1.56 mg/L (≈ 4.43 µM) | 6.25 mg/L (≈ 17.7 µM) | 1.56 mg/L (≈ 4.43 µM) | 0.78 mg/L (≈ 2.21 µM) | 1.56 mg/L (≈ 4.43 µM) | 25 mg/L (≈ 70.9 µM) | – | 25 mg/L (≈ 70.9 µM) | 3.13 mg/L (≈ 8.88 µM) | – | > 100 mg/L | 0.78 mg/L (≈ 2.21 µM) | – | 0.39 mg/L (≈ 1.11 µM) | > 100 mg/L | – | > 100 mg/L | 1.56 mg/L (≈ 4.43 µM) | 25 mg/L (≈ 70.9 µM) | – | MIC (Ent. cloacae IID977): 6.25 mg/L (≈ 17.7 µM); MIC (Pro. morganii T-216; T216, 20 h, 10^6 cells per ml): 6.25 mg/L (≈ 17.7 µM); MIC (Pro. vulgaris GN76**; GN76, 20 h): 3.13 mg/L (≈ 8.88 µM); MIC (E. coli TK-3*): 3.13 mg/L (≈ 8.88 µM) |
| Cn1ccc2cc(-c3cc(=O)c(C(=O)O)cn3-c3ccc(O)cc3)ccc21 | 0.1 mg/L (≈ 0.277 µM) | 0.78 mg/L (≈ 2.16 µM) | ≤ 0.05 mg/L | 0.1 mg/L (≈ 0.277 µM) | 0.1 mg/L (≈ 0.277 µM) | 0.78 mg/L (≈ 2.16 µM) | 0.39 mg/L (≈ 1.08 µM) | 3.13 mg/L (≈ 8.69 µM) | 0.2 mg/L (≈ 0.555 µM) | 0.39 mg/L (≈ 1.08 µM) | 3.13 mg/L (≈ 8.69 µM) | ≤ 0.05 mg/L | 0.39 mg/L (≈ 1.08 µM) | ≤ 0.05 mg/L | 0.78 mg/L (≈ 2.16 µM) | 0.39 mg/L (≈ 1.08 µM) | 3.13 mg/L (≈ 8.69 µM) | ≤ 0.05 mg/L | 0.78 mg/L (≈ 2.16 µM) | – | – |
| Nc1ccc(-c2cc(=O)c(C(=O)O)cn2-c2ccc(F)cc2)cc1 | 0.78 mg/L (≈ 2.41 µM) | 3.13 mg/L (≈ 9.65 µM) | – | 0.2 mg/L (≈ 0.617 µM) | – | – | 1.56 mg/L (≈ 4.81 µM) | 12.5 mg/L (≈ 38.5 µM) | 0.39 mg/L (≈ 1.2 µM) | 1.56 mg/L (≈ 4.81 µM) | 6.15 mg/L (≈ 19 µM) | 0.39 mg/L (≈ 1.2 µM) | 0.78 mg/L (≈ 2.41 µM) | 0.2 mg/L (≈ 0.617 µM) | – | 0.78 mg/L (≈ 2.41 µM) | 25 mg/L (≈ 77.1 µM) | – | 6.25 mg/L (≈ 19.3 µM) | 6.25 mg/L (≈ 19.3 µM) | MIC (St. aureus FDA209P): 3.13 mg/L (≈ 9.65 µM); MIC (Aci. antitratus A-6): 3.13 mg/L (≈ 9.65 µM); MIC (Ps. aeruginosa GN918**; GN918, 20 h): 3.13 mg/L (≈ 9.65 µM); MIC (St. aureus F-137*): 3.13 mg/L (≈ 9.65 µM) |
| CN(C)c1ccc(-c2cc(=O)c(C(=O)O)cn2-c2ccc(F)cc2)cc1 | 0.78 mg/L (≈ 2.21 µM) | 6.25 mg/L (≈ 17.7 µM) | 0.78 mg/L (≈ 2.21 µM) | 0.39 mg/L (≈ 1.11 µM) | 0.39 mg/L (≈ 1.11 µM) | – | 3.13 mg/L (≈ 8.88 µM) | – | 1.56 mg/L (≈ 4.43 µM) | 3.13 mg/L (≈ 8.88 µM) | 25 mg/L (≈ 70.9 µM) | 0.39 mg/L (≈ 1.11 µM) | – | 0.2 mg/L (≈ 0.568 µM) | – | 3.13 mg/L (≈ 8.88 µM) | – | 0.78 mg/L (≈ 2.21 µM) | 12.5 mg/L (≈ 35.5 µM) | 6.25 mg/L (≈ 17.7 µM) | MIC (Ps. aeruginosa S-68; S68, 20 h): 12.5 mg/L (≈ 35.5 µM); MIC (Pro. vulgaris GN76**; GN76, 20 h): 1.56 mg/L (≈ 4.43 µM); MIC (Ps. aeruginosa GN918**; GN918, 20 h): 12.5 mg/L (≈ 35.5 µM); MIC (Ps. aeruginosa GN3379*; GN3379, 20 h): 12.5 mg/L (≈ 35.5 µM) |
| O=C(O)c1cn(-c2ccc(O)cc2F)c(-c2ccc(N3CCOCC3)cc2)cc1=O | – | 12.5 mg/L (≈ 30.5 µM) | 0.78 mg/L (≈ 1.9 µM) | – | 6.25 mg/L (≈ 15.2 µM) | – | 6.25 mg/L (≈ 15.2 µM) | 25 mg/L (≈ 60.9 µM) | 1.56 mg/L (≈ 3.8 µM) | – | 100 mg/L (≈ 244 µM) | 0.39 mg/L (≈ 0.95 µM) | 6.25 mg/L (≈ 15.2 µM) | 0.39 mg/L (≈ 0.95 µM) | – | 3.13 mg/L (≈ 7.63 µM) | 50 mg/L (≈ 122 µM) | 0.78 mg/L (≈ 1.9 µM) | 25 mg/L (≈ 60.9 µM) | 12.5 mg/L (≈ 30.5 µM) | MIC (E. coli NIHJ JC-2): 1.56 mg/L (≈ 3.8 µM); MIC (Pro. vulgaris GN3027): 1.56 mg/L (≈ 3.8 µM); MIC (Pro. morganii T-216; T216, 20 h, 10^6 cells per ml): 12.5 mg/L (≈ 30.5 µM); MIC (Ps. aeruginosa GN918**; GN918, 20 h): 12.5 mg/L (≈ 30.5 µM) |
